Our source for the Ki values is publication PMC7465886, “4-(N-Alkyl- and -Acyl-amino)-1,2,4-triazole-3-thione Analogs as Metallo-β-Lactamase Inhibitors: Impact of 4-Linker on Potency and Spectrum of Inhibition” (Biomolecules, 2020).

For the experiment, the target named is T1, VIM-2 (Escherichia coli, UniProt Q5U7L7).
T1 construct: made in house; host or cells: E. coli BL21(DE3) derivative, pET-9a
The experiment can be described thus: MBL inhibition, reporter substrate method, VIM-2. Format: biochemical. The conditions noted are these: hydrazine and hydrazide series; read-out: Ki Value VIM-2. As for the experimental part:
Compounds were prepared in DMSO at a final concentration of 50 mM prior to dilution in the assay buffer. The reaction rate was measured as the variation of absorbance observed upon substrate hydrolysis in a UV-Vis spectrophotometer or microplate reader at a wavelength of 300 nm (imipenem, meropenem), 260 nm (cefotaxime), or 482 nm (nitrocefin) and in the presence of a purified MBL enzyme (such as VIM-1, VIM-2, VIM-4, NDM-1, and IMP-1, at a final concentration ranging from 1 to 70 nM).
These enzymes were overproduced in derivatives of E. coli BL21(DE3) carrying a pET-9 a (IMP-1, VIM-1, VIM-2, and VIM-4) or pET-15 b (NDM-1) vector into which the metallo-β-lactamase-encoding open reading frame was cloned. Bacterial strains were grown in the auto-inducing medium, ZYP-5052, supplemented with 50 μg/mL kanamycin for 24 h at 37 °C [38]. IMP-1, VIM-1, VIM-2, and VIM-4 were purified by ion-exchange and gel filtration chromatography using an AKTA Purifier platform (GE Healthcare, Uppsala, Sweden) as previously described. NDM-1 (residues 37-270) was produced as an amino-terminal 6 xHis-tag fusion protein and was purified using affinity chromatography. After growth for 26 h at 25 °C, bacterial cells were harvested by centrifugation (10,000× g, 30 min, 4 °C), resuspended in 10 mM HEPES buffer (pH 7.5) containing 0.15 M NaCl (buffer A) in one-fifth of the original culture volume, and lysed by sonication. Cellular debris was removed by centrifugation (12,000× g, 40 min, 4 °C). The clarified sample was loaded on a HisTrap HP column (bed volume, 5 mL; GE Healthcare), followed by a wash step (25 mL) with buffer A containing 20 mM imidazole. Proteins were eluted using buffer A containing 350 mM imidazole. The resulting protein sample was desalted (HiPrep 26/10 Desalting column, GE Healthcare) using 20 mM triethanolamine (pH 7.2) supplemented with 50 μM ZnSO4 and concentrated using an Amicon Ultra-15 (MW cut-off, 10 kDa; Millipore, Burlington, MA, USA). The concentrated sample was loaded on a Superdex 75 prep grade column (XK16/100 column; bed volume, 140 mL; GE Healthcare) and the proteins eluted with buffer A containing 50 μM ZnSO4. The active fractions were pooled and stored at −20 °C. The purity of the protein preparations was estimated >95% by SDS-PAGE analysis. The authenticity of the enzyme preparations was confirmed by electron spray ionization mass spectrometry, as previously described.
The inhibition constants (Ki) were determined on the basis of a model of competitive inhibition by analyzing the dependence of the ratio v0/vi (v0, hydrolysis velocity in the absence of inhibitor; vi, hydrolysis velocity in the presence of inhibitor) as a function of [I] as already described. The slope of the plot of v0/vi vs. [I], which corresponds to Km^S/(Km^S + [S])Ki (where Km^S is the Km value of the reporter substrate and [S] its concentration in the reaction mixture) and allowed the calculation of the Ki value. Alternatively, a Dixon plot analysis was carried out by measuring the initial hydrolysis rates in the presence of variable concentrations of inhibitor and substrate. This allowed Ki values to be determined and supported the hypothesis that the various compounds behaved as competitive inhibitors of the various tested enzymes. The assays were performed in triplicate.

pKi: −log10 of the molar value.

For `O=C(O)c1ccccc1CNn1c(-c2ccccc2)n[nH]c1=S` [Compound 1], the pKi was 5.85.
